In PMC2821452 (Synapse (New York, N.Y.), 2010):

Tested on: opioid receptors
Assay: Affinity for opioid receptors
Format: binding
Conditions: unpublished data

affinity for opioid receptors: no affinity
Compound: CC(=O)O[C@@H]1C[C@H]2C(C)(C)C(=O)C=C[C@]2(C)[C@H]2CC[C@@]3(C)[C@H](c4ccoc4)OC(=O)[C@H]4O[C@]43[C@@]21C [Gedunin, (1S,3aS,4aR,4bS,5R,6aR,10aR,10bR,12aS)-5-(acetyloxy)-1-(3-furanyl)-1,5,6,6a,7,10a,10b,11,12,12a-decahydro-4b,7,7,10a,12a-pentamethyl-oxireno[c]phenanthro[1,2-d]pyran-3,8(3aH,4bH)-dione]
